Test results taken from publication PMC6522510 (Nature Communications, 2019).

Tests used:
MOLM-13 [1] = test: cells; design: species or system AML cell lines (8); Secondary HTS, 10-point dose-response in triplicate, Cell Titer Glo viability, four-parameter fit EC50; conditions: Homo sapiens, MOLM-13, 72 h, read-out: MOLM-13
MV4-11 [2] = test: cells; design: species or system AML cell lines (8); Secondary HTS, 10-point dose-response in triplicate, Cell Titer Glo viability, four-parameter fit EC50; conditions: Homo sapiens, MV4-11, 72 h, read-out: MV4-11
CHRF288-11 [3] = test: cells; design: species or system AML cell lines (8); Secondary HTS, 10-point dose-response in triplicate, Cell Titer Glo viability, four-parameter fit EC50; conditions: 72 h, read-out: CHRF288-11
CMS = test: cells; design: species or system AML cell lines (8); Secondary HTS, 10-point dose-response in triplicate, Cell Titer Glo viability, four-parameter fit EC50; conditions: 72 h, read-out: CMS
M07e = test: cells; design: species or system AML cell lines (8); Secondary HTS, 10-point dose-response in triplicate, Cell Titer Glo viability, four-parameter fit EC50; conditions: M-07e, 72 h, read-out: M07e
ML-2 = test: cells; design: species or system AML cell lines (8); Secondary HTS, 10-point dose-response in triplicate, Cell Titer Glo viability, four-parameter fit EC50; conditions: Homo sapiens, ML-2, 72 h, read-out: ML-2
U937 [4] = test: cells; design: species or system AML cell lines (8); Secondary HTS, 10-point dose-response in triplicate, Cell Titer Glo viability, four-parameter fit EC50; conditions: Homo sapiens, U-937, 72 h, read-out: U937
CMK [5] = test: Secondary dose-response HTS, Cell Titer Glo; assay type: cell-based, human; conditions: Homo sapiens, CMK, read-out: average effective concentration, CMK
MOLM-13 [6] = test: Secondary dose-response HTS, Cell Titer Glo; assay type: cell-based, human; conditions: Homo sapiens; secondary high-throughput screen; MOLM-13; read-out: average effective concentration, MOLM-13
MV4-11 [7] = test: Secondary dose-response HTS, Cell Titer Glo; assay type: cell-based, human; conditions: Homo sapiens; secondary high-throughput screen; MV4-11; read-out: average effective concentration, MV4-11
CHRF288-11 [8] = test: Secondary dose-response HTS, Cell Titer Glo; assay type: cell-based, human; conditions: Homo sapiens, HTS; secondary high-throughput screen; CHRF288-11; read-out: average effective concentration, CHRF288-11
U937 [9] = test: Secondary dose-response HTS, Cell Titer Glo; assay type: cell-based, human; conditions: Homo sapiens
CMK [10] = test: cells; design: species or system AML cell lines (8); Secondary HTS, 10-point dose-response in triplicate, Cell Titer Glo viability, four-parameter fit EC50; conditions: Homo sapiens, CMK, 72 h, read-out: CMK
[11] = secondary high-throughput screen
[12] = U-937, secondary high-throughput screen, U937, read-out: average effective concentration, U937

SMILES | EC50 (MOLM-13 [1]) [µM] | EC50 (MV4-11 [2]) [µM] | EC50 (U937 [4]) [µM] | EC50 (MOLM-13 [6]) [µM] | EC50 (MV4-11 [7]) [nM] | EC50 (U937 [9]; U-937, read-out: average effective concentration, U937) [µM] | EC50 (CHRF288-11 [3]) [µM] | EC50 (CMS) [µM] | EC50 (M07e) [µM] | EC50 (ML-2) [µM] | EC50 (CMK [5]; [11]) [µM] | EC50 (CHRF288-11 [8]) [µM] | EC50 (U937 [9]; [12]) [µM] | EC50 (CMK [10]) [µM] | EC50 (CMK [5]) [µM]
N[C@@H]1C[C@H]1c1ccccc1 (racemic) [SJ000286124, TRANYLCYPROMINE] | > 10 | > 10 | > 10 |  |  |  | > 10 | > 10 | > 10 | > 10 |  |  |  |  | 
CC(C)C[C@H](NC(=O)[C@H](CCc1ccccc1)NC(=O)CN1CCOCC1)C(=O)N[C@@H](Cc1ccccc1)C(=O)N[C@@H](CC(C)C)C(=O)[C@@]1(C)CO1 [Carfilzomib] |  |  |  |  |  |  |  |  |  | 0.0029 |  |  |  |  | 
Nc1nc(Cl)nc2c1ncn2[C@@H]1O[C@H](CO)[C@@H](O)[C@@H]1F [Clofarabine, clofarabine] |  |  |  |  |  |  |  |  |  | 0.125 |  |  |  |  | 
Nc1ncn([C@H]2C[C@H](O)[C@@H](CO)O2)c(=O)n1 [DECITABINE] |  | 9.6 |  | 0.001 |  |  |  | > 10 | > 10 | > 10 | 4.3 | 7 | 0.31 |  | 
CC(=O)O[C@@]12CO[C@@H]1C[C@H](O)[C@@]1(C)C(=O)[C@H](O)C3=C(C)[C@@H](OC(=O)[C@H](O)[C@@H](NC(=O)OC(C)(C)C)c4ccccc4)C[C@@](O)([C@@H](OC(=O)c4ccccc4)[C@H]21)C3(C)C [Docetaxel, docetaxel] |  |  |  |  |  |  |  |  |  | > 10 |  |  |  |  | 
C=CC(=O)N1CCC[C@@H](n2nc(-c3ccc(Oc4ccccc4)cc3)c3c(N)ncnc32)C1 [Ibrutinib] |  |  |  |  |  |  | > 10 |  | > 10 | > 10 |  |  |  |  | 
O=C(O)CNC(=O)C(=O)O [N-OXALYLGLYCINE] |  | > 10 |  | 2.3 |  |  | > 10 | > 10 | > 10 | > 10 |  |  | 3.3 |  | 
Cc1ncc(CNC(=O)N(CCCl)N=O)c(N)n1 [NIMUSTINE] | > 10 | > 10 | > 10 |  |  |  | > 10 | > 10 | > 10 | > 10 | 10 |  |  |  | 
CC(C(=O)Nc1cccc(/N=C/c2c(O)ccc3ccccc23)c1)c1ccccc1 (stereo not shown) [SALERMIDE] |  | > 10 |  | 7 |  |  | > 10 | > 10 | > 10 | > 10 |  |  | 6.6 | > 10 | 
Nc1ncnc2c1ncn2[C@@H]1C=C(CO)[C@@H](O)[C@H]1O [SJ000784248, NEPLANOCIN A] | 0.36 | > 10 | 1.1 |  |  |  | 6.5 | > 10 | > 10 | 5.8 |  |  |  |  | 
CN(C)C1CCN(C(=O)c2ccc(NC(=O)Nc3ccc(-c4nc(N5CCOCC5)nc(N5CCOCC5)n4)cc3)cc2)CC1 [SJ000784327, PF-05212384] |  |  |  |  |  |  | > 10 | > 10 | > 10 | > 10 |  |  |  |  | 
N[C@@H]1C[C@H]1c1cc(F)cc(F)c1OCc1ccccc1 [SJ000785902, S2101] | > 10 | > 10 | > 10 |  |  |  | > 10 | > 10 | > 10 | > 10 |  |  |  |  | 

The next lines start with results.

EC50 (MOLM-13 [1]) [µM] | EC50 (MV4-11 [2]) [µM] | EC50 (U937 [4]) [µM] | EC50 (MOLM-13 [6]) [µM] | EC50 (MV4-11 [7]) [nM] | EC50 (U937 [9]; U-937, read-out: average effective concentration, U937) [µM] | SMILES | EC50 (CHRF288-11 [3]) [µM] | EC50 (CMS) [µM] | EC50 (M07e) [µM] | EC50 (ML-2) [µM] | EC50 (CMK [5]; [11]) [µM] | EC50 (CHRF288-11 [8]) [µM] | EC50 (U937 [9]; [12]) [µM] | EC50 (CMK [10]) [µM] | EC50 (CMK [5]) [µM]
> 10 | > 10 | > 10 |  |  |  | CC(=O)O[C@H]1CC[C@@]2(C)C(=CC[C@@H]3[C@@H]2CC[C@]2(C)C(c4cccnc4)=CC[C@@H]32)C1 [ABIRATERONE ACETATE] | > 10 | > 10 | > 10 | > 10 | 5.3 |  |  |  | 
 |  |  | > 10 | > 10000 |  | CC(C)c1c(C(=O)Nc2ccccc2)c(-c2ccccc2)c(-c2ccc(F)cc2)n1CC[C@@H](O)C[C@@H](O)CC(=O)O [ATORVASTATIN] |  | > 10 | > 10 | > 10 |  | > 10 | > 10 | > 10 | 
 |  | > 10 |  |  |  | COc1cc(CCc2cc(NC(=O)c3ccc(N4C[C@@H](C)N[C@@H](C)C4)cc3)n[nH]2)cc(OC)c1 [AZD4547] | > 10 | > 10 | > 10 | > 10 |  |  |  |  | 
> 10 |  | > 10 |  | 2100 |  | C=C(c1ccc(C(=O)O)cc1)c1cc2c(cc1C)C(C)(C)CCC2(C)C [BEXAROTENE] | > 10 | > 10 | > 10 | > 10 | 8.1 |  |  |  | 
 |  | > 10 | 0.05 | 1 |  | COc1cc2nccc(Oc3ccc(NC(=O)C4(C(=O)Nc5ccc(F)cc5)CC4)cc3)c2cc1OC [CABOZANTINIB] | > 10 | > 10 | > 10 | > 10 | 7.3 |  |  |  | 
> 10 | > 10 | > 10 |  |  |  | Cn1c(=O)n(-c2ccc(C(C)(C)C#N)cc2)c2c3cc(-c4cnc5ccccc5c4)ccc3ncc21 [DACTOLISIB] | > 10 | > 10 | > 10 | > 10 | 0.066 |  |  |  | 
 | > 10 | > 10 | 0.002 |  |  | Cc1nc(C(=O)NCC(=O)O)c(O)c2ccc(Oc3ccccc3)cc12 [FG-4592] | > 10 | > 10 | > 10 | > 10 |  |  |  | > 10 | 
 | > 10 | > 10 | > 10 |  |  | NC(=O)c1ccc(I)c([N+](=O)[O-])c1 [INIPARIB] | > 10 | > 10 | > 10 | > 10 |  |  |  |  | 
> 10 | > 10 | > 10 |  |  |  | CCC(C)n1ncn(-c2ccc(N3CCN(c4ccc(OCC5COC(Cn6cncn6)(c6ccc(Cl)cc6Cl)O5)cc4)CC3)cc2)c1=O (stereo not shown) [ITRACONAZOLE] | > 10 | > 10 | > 10 | > 10 | 6.4 |  |  |  | 
 | > 10 | > 10 | > 10 |  |  | CC[C@H](C)C(=O)O[C@H]1C[C@@H](C)C=C2C=C[C@H](C)[C@H](CC[C@@H]3C[C@@H](O)CC(=O)O3)[C@H]21 [LOVASTATIN] |  | > 10 | > 10 | > 10 |  | 6.3 |  | > 10 | 
 | > 10 | > 10 | 8.9 |  |  | CC[C@H](C)C(=O)O[C@H]1CCC=C2C=C[C@H](C)[C@H](CC[C@@H]3C[C@@H](O)CC(=O)O3)[C@H]21 [MEVASTATIN] |  | > 10 | > 10 | > 10 |  | 6.6 |  | > 10 | 
> 10 | > 10 |  |  |  |  | CC(=O)c1c(C)c2cnc(Nc3ccc(N4CCNCC4)cn3)nc2n(C2CCCC2)c1=O [Palbociclib] | > 10 |  | > 10 | > 10 |  |  |  |  | 
> 10 | > 10 | > 10 |  |  |  | CS(=O)(=O)N1CCN(Cc2cc3nc(-c4cccc5[nH]ncc45)nc(N4CCOCC4)c3s2)CC1 [Pictilisib] | > 10 | > 10 | > 10 | > 10 |  |  |  |  | 
 |  | 0.0052 |  |  |  | Cn1cc(CNCC2CCN(c3ncc(C(=O)NO)cn3)CC2)c2ccccc21 [Quisinostat] |  |  | 0.0042 | 0.00387 |  |  |  |  | 
0.19 | > 10 | > 10 |  |  |  | Nc1nccc2c1ncn2[C@@H]1C=C(CO)[C@@H](O)[C@H]1O [SJ000785904, 3-DEAZANEPLANOCIN] | 1.8 | > 10 | 0.001 | > 10 |  |  |  |  | 
> 10 | > 10 |  |  |  | 0.54 | Cn1cncc1[C@@](N)(c1ccc(Cl)cc1)c1ccc2c(c1)c(-c1cccc(Cl)c1)cc(=O)n2C [TIPIFARNIB] | > 10 | > 10 | > 10 | > 10 |  |  |  |  | 1.4
 | > 10 | > 10 | 10 |  |  | COc1cc2c(Nc3ccc(Br)cc3F)ncnc2cc1OCC1CCN(C)CC1 [VANDETANIB] | > 10 | > 10 | > 10 | > 10 |  |  |  |  | 5.8
